Reference: patent publication US5169944A, “Methods and compositions for the enteral administration of hepatobiliary MRI contrast agents” (Board of Regents of the University of Washington, priority 1991, dated 1992)
“Also recorded” adds a separate entry of the source.

Assays:
normal liver parenchyma [1] = test: MRI enhancement in normal and liver abscess rats: normal liver parenchyma; assay type: in vivo, Sprague-Dawley rats
[2] = test system: normal subcutaneous tissue; test: MRI enhancement in liver abscess rats: normal subcutaneous tissue; assay type: in vivo, Sprague-Dawley rats; settings: for enhancement of normal subcutis (in words): i.v.
[3] = rat, in vivo
[4] = Deaths following the imaging experiment; assay type: in vivo, Sprague-Dawley rats; settings: 5 rats per agent, i.v.; unclear whether due to contrast media or anesthesia
Description: Pyrogenic liver abscesses were induced in Sprague-Dawley rats following the method of Weinsten, WM, 1975. Twelve female sprague-Dawley rats (250-300 g each) underwent midline laparotomy following intraperitoneal anesthesia with sodium pentobarbital (40-50 mg/kg), and a filtered bacterial inoculum of colonic contents was directly injected into the liver of each rat. Two animals died within 24 hours following surgery and were excluded from the study. The remaining 10 rats underwent MR imaging 4-6 days after surgery, as described below.
These studies were done at an estimated 1/10 of the LD50 of protoporphyrin (Jackson et al, 1985).

liver abscess = test: MRI enhancement in liver abscess rats: liver abscess; assay type: in vivo, Sprague-Dawley rats
[5] = test system: liver metastases (mammary adenocarcinoma R3230 AC); test: MRI enhancement in rats with liver metastases: tumor; assay type: in vivo, Fischer 344 female rats; settings: for visualization of tumor deposits: i.v.
Description: The entire procedure was performed under sterile conditions. Four animals died within 48 hours following surgery.

subcutaneous abscesses = test: MRI enhancement in liver abscess rats: subcutaneous abscesses; assay type: in vivo, Sprague-Dawley rats; settings: for enhancement of subcutaneous abscesses (in words): i.v.
liver = settings: cited from earlier work; for contrast enhancement: subsequent limited imaging experiments
[6] = in vitro
normal liver tissue [7] = settings: gastric lavage, 0.05 mmol/kg Mn mesoporphyrin + […] mixed micelles, 4 hours
normal liver tissue [8] = settings: i.v. 0.04 mmol/kg, 30 minutes
Vx-2 tumor = test: MRI signal enhancement, Vx-2 carcinoma model: tumor; assay type: in vivo, New Zealand White (NZW) rabbits; settings: i.v. 0.04 mmol/kg, 30 minutes
normal liver parenchyma [9] = test system: normal liver parenchyma
Description: Imaging experiments were performed with a General Electric CSI-II 2.0 T (85.6 Mhz proton resonant frequency) chemical shift imaging spectrometer (GE Medical Systems, Fremont, Calif.). The proton imaging sequence used was that of a standard pin echo 2DFT sequence that employed a single 3 mm slice thickness with four phase cycled signal acquisitions. […] Coronal images were obtained of the rats+ abdomen and thorax using a TR of 160 msec and a TE of 16 msec. A specially designed 53 mm outer diameter (130 mm long) imaging coil of the low-pass birdcage resonantor design was employed with a balanced-matched tuning network for all images. […]
Signal intensity was measured by region-of-interest (ROI) analysis both for normal liver parenchyma, liver lesions and a corn oil standard. […] Signal intensity was measured over the center of the hepatic abscesses. Signal intensities were also determined for normal subcutaneous tissue in the area of the thoracic wall and for subcutaneous abscesses located in the anterior abdominal wall in rats with liver abscesses. Measured signal intensities (SI) were normalized to the intensity of the corn oil standard for all pre- and postcontrast images. Signal intensity enhancement was calculated according to the formula: (SI postcontrast-SI precontrast)/SI precontrast. […]

gall bladder = settings: i.v. 0.04 mmol/kg, 30 minutes
[10] = solubility and stability in hydrophilic and lipophilic solvents
[11] = early work; cited from earlier work

O=S(=O)([O-])c1ccc(-c2c3nc(c(-c4ccc(S(=O)(=O)[O-])cc4)c4ccc([nH]4)c(-c4ccc(S(=O)(=O)[O-])cc4)c4nc(c(-c5ccc(S(=O)(=O)[O-])cc5)c5ccc2[nH]5)C=C4)C=C3)cc1.[Mn+4] [Mn TPPS4, manganese tetrakis-(4-sulfonatophenyl)porphyrin, reference compound]
enhancement of normal liver parenchyma (normal liver parenchyma [1]; i.v. Mn TPPS4, 10 minutes post injection, p greater than 0.05): 43% | enhancement of normal subcutis (in words) [2]: enhanced both subcutis and subcutaneous abscesses | enhancement of normal subcutaneous tissue ([2]; i.v. Mn TPPS4, 60 minutes, p less than 0.05): 56% | skin discoloration [3]: green discoloration of the skin | death following the imaging experiment [4]: One rat | contrast between normal and diseased tissue (liver abscess; i.v.): enhanced both normal liver and abscesses, thus providing no improved contrast between normal and diseased tissue | enhancement of liver abscess (liver abscess; i.v. Mn TPPS4, 10 minutes post injection, p less than 0.05): 63% | visualization of tumor deposits [5]: failed to help in distinguishing the site of the tumor deposits | enhancement of liver and tumor / lesion discrimination ([5]; i.v. Mn-TPPS4): enhanced both liver and tumor thus providing no discrimination of the lesion | enhancement of subcutaneous abscesses (in words) (subcutaneous abscesses): enhanced both subcutis and subcutaneous abscesses | enhancement of subcutaneous abscesses (subcutaneous abscesses; i.v. Mn TPPS4, 60 minutes, p greater than 0.05): 88%

manganese uroporphyrin
contrast enhancement (liver): produced dramatic contrast effects in the kidneys and urine

C=CC1=C(C)c2cc3[n-]c(cc4[n-]c(cc5nc(cc1n2)C(C)=C5C=C)c(C)c4CCC(=O)[O-])c(CCC(=O)[O-])c3C.[H+].[H+].[Mn+2] [manganese protoporphyrin]
contrast enhancement (liver): caused hepatic and biliary contrast enhancement

O=C([O-])CN(CCN(CC(=O)[O-])CC(=O)[O-])CCN(CC(=O)[O-])C(COCc1ccccc1)C(=O)[O-].[Gd+3] (stereo not drawn) [Gd-BOPTA]
hepatic excretion and bile duct opacification (liver; in vivo): undergoes hepatic excretion and opacifies the bile ducts

manganese (III) mesoporphyrin [Mn mesoporphyrin]
liver enhancement (normal liver parenchyma [1]; i.v. 0.035-0.045 mmol/kg, 10 minutes, p less than 0.01): 43% | prolonged enhancement of normal liver parenchyma (normal liver parenchyma [1]; i.v., over the observation period of 60 min, significant): 30-50% | enhancement of normal subcutis (in words) [2]: did not yield enhancement; also recorded: did not enhance either subcutis or subcutaneous abscesses | binding by cholestyramine [6]: cholestyramine binds Mn mesoporphyrin | enhancement of normal liver tissue over baseline (normal liver tissue [7]): 65% | tumor-to-liver contrast (liver metastases; gastric, 0.05 mmol/kg + […] mixed micelles, single observation vs control animal): significant increase of the tumor-to-liver contrast | enhancement properties, oral vs intravenous (liver metastases; tumor-to-liver contrast, oral administration): substantially equivalent to the properties established for intravenous administration | enhancement of the liver (MRI signal intensity) (normal liver tissue [8]): 89.6+/-17.5% | enhancement of the tumor tissue (MRI signal intensity) (Vx-2 tumor): 12.7+/-12.1% | statistical significance of tumor enhancement (Vx-2 tumor): not statistically significant | increase of signal intensity of normal liver parenchyma over baseline (normal liver parenchyma [9]; 24 and 48 hrs, n=3 rats, may be artificially high): 30% | maximum enhancement of normal liver parenchyma (normal liver parenchyma [9]; i.v. 0.035 mmol/kg, over 60 min): 70% | enhancement of the gall bladder (MRI signal intensity) (gall bladder): 373+/-92.3% | death following the imaging experiment [4]: one | enhancement of liver abscesses (in words) (liver abscess; i.v., any time): not enhanced at any time | solubility in K2PO4 / water-based buffer [10]: improved solubility in high pH solutions | delayed tumor enhancement ([5]; 24 and 48 hrs, n=3 rats): no delayed tumor enhancement was observed | visualization of tumor deposits [5]: made visualization of tumor deposits extremely simple | effect on signal intensity of metastases ([5]; i.v. 0.035 mmol/kg, center and periphery of tumors, over 60 min, n=6 rats): did not significantly affect the signal intensity of metastases | contrast enhancement of normal hepatic tissue (liver; T1 weighted MRI, non-toxic doses): contrast enhancement of normal hepatic tissue leading to improved diagnostic visualization of tumors and abscesses | enhancement of subcutaneous abscesses (in words) (subcutaneous abscesses): did not yield enhancement; also recorded: did not enhance either subcutis or subcutaneous abscesses

CNC[C@H](O)[C@@H](O)[C@H](O)[C@H](O)CO.CNC[C@H](O)[C@@H](O)[C@H](O)[C@H](O)CO.O=C([O-])CN(CCN(CC(=O)[O-])CC(=O)O)CCN(CC(=O)[O-])CC(=O)O.[Gd+3] [Gd-DTPA, gadopentetate dimeglumine]
contrast enhancement of normal liver and focal liver lesions (liver; intravenous): nonselectively enhances either normal liver, focal liver lesions or both

C=CC1=C(C)c2cc3[nH]c(cc4nc(cc5[nH]c(cc1n2)c(C)c5CCC(=O)O)C(CCC(=O)O)=C4C)c(C)c3C=C [protoporphyrin]
solubility [11]: poor solubility | toxicity [11]: apparent high toxicity | T1 effects in the liver (liver; early work): tissue specific T1(inversion time) effects were clearly demonstrated in the liver
